Common to all, as to format: cell-based
Design in all cases: dose or concentration left out as unconfirmed

The subject of test [1] is prostate tumor cell line DU-145. The experiment in a line: Viability assay, Trypan blue exclusion, prostate tumor cell line DU-145. The following applies: for cytotoxicity: Homo sapiens, DU-145, 96 hours, read-out: percent cell death (% Death), DU145; for percent cell death (% Death), DU145: 96 hours. As to the method:
(§1) The effect of the sulfones on normal fibroblasts and on tumor cells of prostate, colon, lung and breast origin was examined utilizing the following cell lines: prostate tumor cell line DU-145; colorectal carcinoma cell line DLD-1; non-small cell lung carcinoma cell line H157; and breast tumor cell line BT-20. BT-20 is an estrogen-unresponsive cell line. NIH/3T3 and HFL are normal murine and human fibroblasts, respectively. BT-20, DLD-1 and H157 were grown in Dulbecco's modified Eagle's medium (DMEM) containing 10% fetal bovine serum supplemented with penicillin and streptomycin. DU145 was cultured in RPMI with 10% fetal bovine serum containing penicillin and streptomycin. NIH3T3 and HFL cells were grown in DMEM containing 10% calf serum supplemented with penicillin and streptomycin. All cell cultures were maintained at 37° C. in a humidified atmosphere of 5% CO2.
(§2) Cells were treated with test compound […] concentration and cell viability was determined after 96 hours by the Trypan blue exclusion method. Activity for each compound is reported as a range of cell induced death (% Death) with the lowest activity in the range of 5-10%.

Test [2] relates to colorectal carcinoma cell line DLD-1. Briefly: Viability assay, Trypan blue exclusion, colorectal carcinoma cell line DLD-1. The note with it: for cytotoxicity: Homo sapiens, DLD-1, 96 hours, read-out: percent cell death (% Death), DLD-1; for percent cell death (% Death), DLD-1: 96 hours. On the procedure: as §1, §2
The test system of test [3] is non-small cell lung carcinoma cell line H157. Briefly: Viability assay, Trypan blue exclusion, non-small cell lung carcinoma cell line H157. The note with it: for cytotoxicity: Homo sapiens, NCI-H157, 96 hours, read-out: percent cell death (% Death), H157; for percent cell death (% Death), H157: 96 hours. On the procedure: as §1, §2
Test [4] has as its system breast tumor cell line BT-20. Briefly: Viability assay, Trypan blue exclusion, breast tumor cell line BT-20. The note with it: for cytotoxicity: Homo sapiens, BT-20, 96 hours, read-out: percent cell death (% Death), BT20; for percent cell death (% Death), BT20: 96 hours. On the procedure:
as §1, §2

Where only a bound is given, the exact number is not on record here.

Consider `O=S(=O)(/C=C/c1ccc2ccccc2c1)Cc1ccc(Cl)cc1` [Example 65, (E)-2-Naphthaleneethenyl-4-chlorobenzylsulfone], for which the cytotoxicity in test [1], in test [2], in test [3] and in test [4] was 5 to 10% each time.

Turning to `O=S(=O)(/C=C/c1cccnc1)Cc1ccc(Cl)cc1` [Example 5, (E)-3-Pyridineethenyl-4-chlorobenzylsulfone], the cytotoxicity in test [1], in test [2], in test [3] and in test [4] was 5 to 10% each time.

Regarding `O=S(=O)(/C=C/c1ccsc1)Cc1ccc(Cl)cc1Cl` [Example 29, (E)-3-Thiopheneethenyl-2,4-dichlorobenzylsulfone], the cytotoxicity in test [1], in test [2], in test [3] and in test [4] was 50 to 60% each time.

For `O=S(=O)(/C=C/c1c2ccccc2cc2ccccc12)Cc1ccc(Br)cc1` [Example 76, (E)-9-Anthraceneethenyl-4-bromobenzylsulfone], the cytotoxicity in test [1] was in the range of 50 to 60%; in test [2], 40 to 50%; in test [3] it was 40 to 50%; in test [4] it was 50 to 60%.

With `O=S(=O)(/C=C/c1ccncc1)Cc1ccc(Br)cc1` [Example 9, (E)-4-Pyridineethenyl-4-bromobenzylsulfone], the cytotoxicity in test [1], in test [2], in test [3] and in test [4] was 5 to 10% throughout.

Consider `O=S(=O)(/C=C/c1ccncc1)Cc1ccc(Cl)cc1` [Example 6, (E)4-Pyridineethenyl4-chlorobenzylsulfone], for which the cytotoxicity in test [1], in test [2], in test [3] and in test [4] was 5 to 10% each time.

Turning to `O=S(=O)(/C=C/c1ccsc1)Cc1ccc(Cl)cc1` [Example 23, (E)-3-Thiopheneethenyl-4-chlorobenzylsulfone], the cytotoxicity in test [1], in test [2], in test [3] and in test [4] was 40 to 50% in each case.

Take `O=S(=O)(/C=C/c1ccsc1)Cc1ccc(Cl)c(Cl)c1` [Example 30, (E)-3-Thiopheneethenyl-3,4-dichlorobenzylsulfone]: the cytotoxicity in test [1], in test [2], in test [3] and in test [4] was 5 to 10% in each case.

Consider `COc1ccc(CS(=O)(=O)/C=C/C2=CS(=O)(=O)C=C2)cc1` [Example 36, (E)-3-Thiophene-1,1-dioxoethenyl-4-methoxybenzylsulfone], for which the “percent cell death (% Death), DU145” value in test [1] was “+ ((+)=5-10%)”. The “percent cell death (% Death), DLD-1” value in test [2] is given as “+ ((+)=5-10%)”. Besides, in test [3], the “percent cell death (% Death), H157” value is recorded as “+ ((+)=5-10%)”. Also, the “percent cell death (% Death), BT20” value in test [4] is “+ ((+)=5-10%)”.

On to `O=S(=O)(/C=C/c1ccccn1)Cc1ccc(Br)cc1` [Example 7, (E)-2-Pyridineethenyl-4-bromobenzylsulfone], for which the cytotoxicity in test [1], in test [2], in test [3] and in test [4] was 5 to 10% each time.

Consider `N#Cc1ccc(CS(=O)(=O)/C=C/c2ccoc2)cc1` [Example 50, (E)-3-Furanethenyl-4-cyanobenzylsulfone], for which the cytotoxicity in test [1], in test [2], in test [3] and in test [4] was 5 to 10% each time.

In the case of `COc1ccc(CS(=O)(=O)/C=C/c2ccoc2)cc1` [Example 46, (E)-3-Furanethenyl-4-methoxybenzylsulfone], the cytotoxicity in test [1], in test [2], in test [3] and in test [4] was greater than 80% each time.

With `COc1ccc(CS(=O)(=O)/C=C/c2ccsc2)cc1` [Example 27, (E)-3-Thiopheneethenyl-4-methoxybenzylsulfone], the cytotoxicity in test [1], in test [2], in test [3] and in test [4] was 50 to 60% in each case.

For the compound `O=S(=O)(/C=C/c1ccoc1)Cc1ccc(Br)cc1` [Example 43, (E)-3-Furanethenyl-4-bromobenzylsulfone], the cytotoxicity in test [1], in test [2], in test [3] and in test [4] was greater than 80% throughout.

On to `O=S(=O)(/C=C/c1ccoc1)Cc1ccc(C(F)(F)F)cc1` [Example 47, (E)-3-Furanethenyl-4-trifluoromethylbenzylsulfone], for which, in test [1], the “percent cell death (% Death), DU145” value was “++++ ((++++)=50-60%)”. Moreover, the “percent cell death (% Death), DLD-1” value in test [2] is on record as “++++ ((++++)=50-60%)”. Also, in test [3], the “percent cell death (% Death), H157” value is on record as “++++ ((++++)=50-60%)”. Besides, the “percent cell death (% Death), BT20” value in test [4] is recorded as “++++ ((++++)=50-60%)”.

On to `O=S(=O)(/C=C/c1cccnc1)Cc1ccc(F)cc1` [Example 2, (E)-3-Pyridineethenyl-4-fluorobenzylsulfone], for which the cytotoxicity in test [1], in test [2], in test [3] and in test [4] was 5 to 10% in each case.

As for `O=S(=O)(/C=C/c1cc(Br)cs1)Cc1ccc(F)cc1` [Example 13, (E)-4-Bromo-2-thiopheneethenyl-4-fluorobenzylsulfone], the cytotoxicity in test [1], in test [2], in test [3] and in test [4] was 5 to 10% in each case.

For `O=S(=O)(/C=C/c1c2ccccc2cc2ccccc12)Cc1ccc(F)cc1` [Example 74, (E)-9-Anthraceneethenyl-4-fluorobenzylsulfone], the cytotoxicity in test [1] is 40 to 50%; in test [2], 50 to 60%; in test [3], greater than 80%; in test [4] it was 50 to 60%.

`O=S(=O)(/C=C/c1ccoc1)Cc1ccc(I)cc1` [Example 44, (E)-3-Furanethenyl-4-iodobenzylsulfone]: the cytotoxicity in test [1], in test [2], in test [3] and in test [4] was greater than 80% throughout.

Take `O=S(=O)(/C=C/c1ccoc1)Cc1ccc(F)cc1` [Example 41, (E)-3-Furanethenyl-4-fluorobenzylsulfone]: the cytotoxicity in test [1], in test [2], in test [3] and in test [4] was 5 to 10% each time.

As to `O=S(=O)(/C=C/c1ccsc1)Cc1ccc(F)cc1` [Example 22, (E)-3-Thiopheneethenyl-4-fluorobenzylsulfone], the cytotoxicity in test [1], in test [2], in test [3] and in test [4] was 5 to 10% throughout.

As for `O=S(=O)(/C=C/c1cc(Br)cs1)Cc1ccc(Br)cc1` [Example 15, (E)-4-Bromo-2-thiopheneethenyl-4-bromobenzylsulfone], the cytotoxicity in test [1], in test [2], in test [3] and in test [4] was 5 to 10% each time.

Consider `O=S(=O)(/C=C/c1ccsc1)Cc1ccc(I)cc1` [Example 25, (E)-3-Thiopheneethenyl-4-iodobenzylsulfone], for which the cytotoxicity in test [1], in test [2], in test [3] and in test [4] was 10 to 15% each time.

As to `O=S(=O)(/C=C/c1ccc(Br)s1)Cc1ccc(Br)cc1` [Example 18, (E)-5-Bromo-2-thiopheneethenyl4-bromobenzylsulfone], the cytotoxicity in test [1], in test [2], in test [3] and in test [4] was 5 to 10% each time.

As to `O=S(=O)(/C=C/c1ccccn1)Cc1ccc(F)cc1` [Example 1, (E)-2-Pyridineethenyl-4-fluorobenzylsulfone], the cytotoxicity in test [1], in test [2], in test [3] and in test [4] was 5 to 10% throughout.

On to `O=S(=O)(/C=C/c1cc(Br)cs1)Cc1ccc(Cl)cc1` [Example 14, (E)-4-Bromo-2-thiopheneethenyl-4-chlorobenzylsulfone], for which the cytotoxicity in test [1], in test [2], in test [3] and in test [4] was 5 to 10% in each case.

Consider `Cc1ccc(CS(=O)(=O)/C=C/c2ccsc2)cc1` [Example 26, (E)-3-Thiopheneethenyl-4-methylbenzylsulfone], for which the cytotoxicity in test [1], in test [2], in test [3] and in test [4] was 5 to 10% each time.

For `O=[N+]([O-])c1cc(/C=C/S(=O)(=O)Cc2ccc(Cl)cc2Cl)cs1` [Example 57, (E)-2-Nitro-4-thiopheneethenyl-2,4-dichlorobenzylsulfone], the cytotoxicity in test [1] is 10 to 15%; in test [2], 10 to 15%; in test [3], 5 to 10%; in test [4], 5 to 10%.

The record behind these values is patent US6599932B1, “Alpha, beta-unsaturated sulfones for treating proliferative disorders” (Temple University-Of The Commonwealth System of Higher …, priority 2000, dated 2003).
